Usually IC50 stands for the midpoint of a concentration-inhibition curve.

Bounds are passed on as bounds.

Consider 1 molecule from US9918968B2, “Rapamycin analogs targeting proteasome function in the treatment of cancer” (THE BOARD OF REGENTS OF THE UNIVERSITY OF TEXAS SYSTEM, priority 2013, dated 2018).

For experiment [1], the system named is MDA-MB-231 (triple-negative breast cancer) cells. Nature of the experiment: Viability/growth of MDA-MB-231 cells. The format is cell-based, human. As for the experimental part:
The cells were grown in 24 or 12-well cell culture plates. […] The final concentration of the solvent was 1% (vol/vol). The number of live and dead cells after the treatment was approximated with calcein AM and ethidium homodimer (LiveDead test, Invitrogen) according to manufacturer's protocol, or by a Trypan Blue exclusion assay. In short, the cells after the treatment were washed three times with PBS and overlaid (surface-growing) or mixed (suspension-growing) with 4 microM calcein AM and 2 microM ethidium homodimer in PBS. […] The cell counts were approximated using standard curves of live and digitonin-killed cells prepared for each strain. Alternatively, after cell treatment the medium was removed, the surface growing cells were overlaid with Trypan Blue solution, and the colorless (live) and blue-colored (dead) cells were counted under the inverted microscope.

The target of experiment [2] is T1, human 20S proteasome, ChT-L peptidase.
T1 construct: purchased Enzo LifeSciences
Put plainly: ChT-L peptidase activity of purified human 20S proteasome (Suc-LLVY-MCA). The conditions noted are these: latent human 20S proteasome. The format is biochemical. As for the experimental part: Human purified proteasome complexes were purchased from Enzo LifeSciences or Boston Biochemicals (19S complex). BODIPY-casein (Invitrogen/Molecular Probes) was used as a model protein substrate, with increasing fluorescence of BODIPY labeled peptide products of degradation monitored for up to 8 hours at 37° C. The peptidase activity of the enzyme was measured as arbitrary intensity units of the released fluorescent group 7-amino-4-methylcoumarin (AMC) from peptide substrates, as described. […] Proteasome substrates, rapamycin, its derivatives, and competing peptides were stocked in DMSO and diluted 100-fold in the reaction mixtures. The Rpt5 and PA200 C-terminal peptides were synthesized in the Departmental Peptide Synthesis Core using the standard SPPS chemistry. To activate the latent 20S proteasome, 0.005% (final concentration) of sodium dodecyl sulfate (SDS) was used. […] The fluorescence of products was monitored every 2 minutes with a Fluoroskan Ascent plate reader. Reaction rates were calculated from smoothed linear segment of kinetic curves using OriginPro 8.6 (OriginLabs, Northampton, Mass.). For the determination of an inhibition type, at least six distinct substrate concentrations and two inhibitor concentrations were used. The kinetic parameters of inhibition were analyzed in terms of the Michaelis-Menten formalism using the enzyme kinetic module of SigmaPlot v.12 (Systat Software, Inc, San Jose, Calif.) to perform the respective calculations. […]
The in vitro assay for testing the ChT-L peptidase activity of the purified human 20S proteasome was performed as described above.

In a further experiment the test system is T2, 20S proteasome α face.
T2 construct: purchased Enzo LifeSciences
Put plainly: AFM imaging of open/closed conformers of 20S proteasome α face. The arrangement: species or system human. The conditions noted are these: 10 μM compound. As for the experimental part:
AFM imaging of the 20S proteasomes were performed as previously described, in tapping (oscillating) mode in liquid (Osmulski et al., 2009 and Gaczynska and Osmulski, 2011). In short, 3 μL of proteasome preparations diluted to nanomolar concentration were deposited on a freshly cleaved muscovite mica surface. After 2 min incubation allowing electrostatic attachment of the protein particles to mica the droplet was overlaid with 30 microL of 50 mM Tris-HCl buffer (pH 7.0) and mounted in the wet chamber of a MultiMode NanoScope Ma (Bruker Corp.). Oxide-sharpened silicon nitride tips on cantilevers with a nominal spring constant 0.32 N/m (Bruker Corp.) were used to image 1 μm^2 fields in the height mode, with a scan rate of 3.05 Hz. The excitation frequency was manually tuned to 9-10 kHz, with a drive voltage of 200-500 mV and a relatively high set point (1.6 V to 1.9 V) to assure tapping with low, non-destructive force. […] As the inventors established previously, such resolution was sufficient to detect distinct conformations of the α face, covered by six scan lines. Multiple fields were scanned for each sample to collect images of hundreds of particles. Selected fields were repeatedly scanned to monitor changes in topography of the same particles for prolonged time. Inhibitors and the SucLLVY-MCA substrate were diluted in 10 μL of the imaging buffer and directly injected into the chamber. Raw images are presented, with a standard plain-fit and flattening (NanoScope software v.5.12) used as the only processing tools. For display purposes the brightness and contrast of the images was adjusted with the Nanoscope software or with Adobe Photoshop (Adobe Systems Inc.), and outlier scan lines were occasionally manually removed (Nanoscope software). Top view (“standing”, rounded) proteasomes were distinguished from the minor population of side-view (“lying”, rectangular) particles as described, by comparison of their length—to width ratios (Osmulski et al., 2009). The dimensions of particles were approximated and a shape of the α face in top-view proteasomes was judged with the help of a section tool in the Nanoscope v.5.12 or SPIP v.6.02 software (Image Metrology).
For this purpose, the inventors used the noninvasive tapping mode atomic force microscopy (AFM) in liquid, the imaging technique suitable for analysis of surface topography of macromolecules in their native state with a nanometer-scale practical resolution. The inventors established before that AFM imaging is a useful tool for studying structural dynamics of the 20S α face (Osmulski et al., 2009, Gaczynska et al., 2003; Gaczynska et al., 2011). They acquired and analyzed images of hundreds of single native, fully active 20S molecules. The majority of particles were in top-view (“standing”) position conveniently allowing for imaging of their α faces. […] Following previous extensive studies, the inventors refer to the two forms as “closed-gate” and “open-gate” proteasomes, respectively (Osmulski et al., 2009). As described before, the inventors used the shape of sections carried out in four directions through the top portion of the surface topography of the α ring to distinguish between the two forms. In short, the particle was classified as closed if all four sections were cone-shaped. In contrast, the particle was classified as open if all sections presented a dip surrounded by a rim (FIG. 5A) (Osmulski, et al., 2009). The same particles imaged in consecutive scans were able to assume either closed or open conformations, however the cone-shaped particles were always more abundant than crater-shaped, and accounted for about three-quarters of the imaged molecules (FIG. 5B). Addition of rapamycin to the imaged particles remarkably changed the partition of forms. […]

In the case of `CO[C@@H](C[C@@H]1CC[C@@H](C)[C@](O)(C(=O)C(=O)N2CCCC[C@H]2C(=O)[O-])O1)/C(C)=C/C=C/C=C/[C@@H](C)C[C@@H](C)C(=O)[C@H](OC)[C@H](O)/C(C)=C/[C@@H](C)C(=O)/C=C/[C@H](C)C[C@@H]1CC[C@@H](O)[C@H](OC)C1.[Na+]` [seco-rapamycin], the EC50 in experiment [1] (24 hours, drug alone, read-out: EC50 (concentration required to exclude 50% of cells)) worked out at 869 nM. For the same molecule, in experiment [1] (seco-rapamycin alone), the “growth of MDA-MB-231 cells” value was “attenuated growth”. In experiment [2], this molecule had an IC50 greater than 20 µM. In the experiment on 20S proteasome α face, the closed conformers is on record as roughly 40% and the open conformers entry is recorded as “about 60%”.
